Data as given in paper PMC10392058 (FEBS Open Bio, 2023).
Values belong to the compound of their own block, whether it stands above or below them.

What was measured:
HXA3 release = tested on: HXA3 release; design: method as in PMID 19017997; conditions: 100 μM; cited from earlier work
[1] = tested on: HXA3/MRP2‐driven neutrophil epithelial transmigration; assay: HXA3/MRP2‐driven neutrophil transmigration assay (S. typhimurium‐stimulated T84 monolayer, MPO readout); format: cell-based, human; conditions: 100 μM probenecid (positive control); P = 0.0008
Description: As described under Materials and Methods, in the neutrophil transmigration assay, a polarized human intestinal cell line monolayer was grown on a transwell insert to mimic the intestinal epithelial barrier. The cells were then apically stimulated by the addition of pathogenic Salmonella typhimurium, eliciting HXA3 efflux via MRP2 into the apical side of the chamber. Fresh, unstimulated human neutrophils were added to the basolateral side of the monolayer, where they detected the HXA3 gradient and migrated through the epithelial monolayer to the apical side. They were then quantified by assay of myeloperoxidase (MPO), a neutrophil biomarker.
Following stimulation via pathogenic S. typhimurium to elicit HXA3 efflux, migration of fresh human neutrophils from the basolateral side of the polarized monolayer (in response to the HXA3 gradient) to the apical side was quantified by MPO activity assay. […]
In the neutrophil transmigration assay (a modified Boyden chamber assay), a polarized T84 human intestinal cell line monolayer was grown on a Transwell insert to mimic the intestinal epithelial barrier. […] Fresh human neutrophils, added to the basolateral side of the monolayer, detected the HXA3 gradient and migrated through the epithelial monolayer to the apical side, where they were quantified by assay of MPO activity, a neutrophil biomarker [47].

BCRP = target: T1, BCRP (Homo sapiens, UniProt Q9UNQ0); assay: MDCKII bidirectional permeability, BCRP expressing cells; conditions: dog
T1 sequence (Q9UNQ0 1-655): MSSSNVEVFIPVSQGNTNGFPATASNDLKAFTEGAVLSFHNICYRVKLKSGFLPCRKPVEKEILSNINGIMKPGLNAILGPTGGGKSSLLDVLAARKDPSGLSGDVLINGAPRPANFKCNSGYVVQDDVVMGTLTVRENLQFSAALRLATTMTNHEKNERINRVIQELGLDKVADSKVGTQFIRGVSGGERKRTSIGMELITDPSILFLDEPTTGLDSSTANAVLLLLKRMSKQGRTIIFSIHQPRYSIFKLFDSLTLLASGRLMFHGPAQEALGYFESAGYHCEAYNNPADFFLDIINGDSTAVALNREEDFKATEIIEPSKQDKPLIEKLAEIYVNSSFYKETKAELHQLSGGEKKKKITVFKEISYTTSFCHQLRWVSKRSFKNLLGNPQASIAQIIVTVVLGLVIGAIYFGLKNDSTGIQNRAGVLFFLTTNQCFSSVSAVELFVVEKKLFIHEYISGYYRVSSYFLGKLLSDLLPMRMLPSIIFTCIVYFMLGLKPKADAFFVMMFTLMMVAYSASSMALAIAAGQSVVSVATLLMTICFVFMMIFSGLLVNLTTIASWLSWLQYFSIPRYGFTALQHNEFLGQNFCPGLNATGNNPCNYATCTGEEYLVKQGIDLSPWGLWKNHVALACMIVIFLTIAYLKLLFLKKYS

[2] = MDCKII bidirectional permeability, mock transfected cells; format: in vitro ADME; conditions: dog, MDCK
MDCKII‐BCRP‐LV cells = target: T2, MDCKII‐BCRP‐LV cells (Homo sapiens, UniProt Q9UNQ0); assay: MDCKII bidirectional permeability, BCRP expressing cells
T2 sequence (Q9UNQ0 1-655): T1 sequence (Q9UNQ0 1-655)

MDCKII‐mock‐LV cells = assay: MDCKII bidirectional permeability, mock transfected cells; format: in vitro ADME

Compound: CCCN(CCC)S(=O)(=O)c1ccc(C(=O)O)cc1 [probenecid]
inhibition of HXA3 release (HXA3 release): effectively inhibits HXA3 release
neutrophil migration inhibition [1]: extremely significant

Papp A→B at 1 μM (BCRP): 3.02 ± 0.84 ×10⁻⁶ cm/s
Papp B→A at 1 μM (BCRP): 53.1 ± 8.15 ×10⁻⁶ cm/s
Papp A→B at 1 μM [2]: 14.7 ± 13.3 ×10⁻⁶ cm/s
Compound: COc1cc2nc(N3CCN(C(=O)c4ccco4)CC3)nc(N)c2cc1OC [Prazosin]

Compound: Lucifer yellow [LY]
Papp A‐B (MDCKII‐BCRP‐LV cells; LY 40 μg mL^−1): 0.06 ± 0.01 × 10^−6 cm·s^−1
Papp A‐B (MDCKII‐BCRP‐LV cells; LY 40 μg mL^−1 + ADS051 14 mg mL^−1 (TA applied apically)): 0.21 ± 0.02 × 10^−6 cm·s^−1
Papp A‐B (MDCKII‐BCRP‐LV cells; LY 40 μg mL^−1 + ADS051 14 mg mL^−1 (TA applied basolaterally)): 0.19 ± 0.01 × 10^−6 cm·s^−1
Papp A‐B (MDCKII‐mock‐LV cells; LY 40 μg·mL^−1): 0.20 ± 0.03 × 10^−6 cm·s^−1
Papp A‐B (MDCKII‐mock‐LV cells; LY 40 μg·mL^−1 + ADS051 14 mg·mL^−1 (TA applied apically)): 0.32 ± 0.09 × 10^−6 cm·s^−1
Papp A‐B (MDCKII‐mock‐LV cells; LY 40 μg·mL^−1 + ADS051 14 mg·mL^−1 (TA applied basolaterally)): 0.46 ± 0.09 × 10^−6 cm·s^−1
